In patent US6071525A, “Whitening cosmetics containing mulberrin” (priority 1997, dated 2000):
“Also recorded” adds a separate entry of the source. Like-named read-outs stand apart in the source and are kept apart here.

Legend:
tyrosinase [1] = conditions: background; cited from earlier work
[2] = system: B-16 melanoma (ATCC CRL 6323) cell line; test: Effect for melanin synthesis in melanocytes (B-16 melanoma); type: cell-based, mouse
Protocol: As melanocytes, commercially available B-16 melanoma (ATCC CRL 6323) cell line derived from mouse was used. The melanoma cell line was inoculated in DMEM culture medium containing glucose (4.5 g/l), 10% serum and 1% antibiotic agent, and cultivated in a 50 ml T-flask at 37° C. After cultivation under a condition of 5% CO2 for 24 hours, the culture solution was treated with 0.05% trypsin containing 0.02% EDTA to isolate cells, which was then inoculated in a 50 ml T-flask and cultivated for 48 hours. At this time, the number of cells was 5.76×10^6 cells/flask. A diluted solution of mulberrin in DMEM medium at a proper concentration was incorporated to the cultivated melanoma cells, and the mixture was cultivated at 37° C. for 5 days. After finishing cultivation, culture medium was thoroughly removed, and the residue was treated with 1 ml of saline-phosphate buffer solution (PBS) containing 0.02% EDTA and 0.05% trypsin to isolate cells, which were then centrifuged for 5 minutes to collect pure cells. The obtained cells were treated with a solution of 5% trichloroacetate (TCA), stirred, and centrifuged. Precipitated melanin was washed with saline-phosphate buffer solution, and treated with 1N NaOH to dissolve melanin therein. Absorbance at 475 nm was measured. Melanin concentration was determined from standard concentration curve of synthetic melanin (produced by Sigma).

skin [3] = test: Whitening effect (general statement); conditions: versus Cortex mori, kojic acid, arbutin and Ramulus mori extract
tyrosinase [4] = test: Tyrosinase inhibition effect (mushroom tyrosinase, tyrosine substrate, absorbance at 475 nm); type: biochemical; conditions: pH 6.8, 37° C., 10 minutes
Protocol: The substrate, tyrosine was used as a solution (0.1 mg/ml) dissolved in 0.05 M sodium phosphate buffer (pH 6.8). […] Then 200 U/ml tyrosinase (0.5 ml) was added thereto, and the reaction performed at the same temperature for 10 minutes. As a control group, buffer solution (0.5 ml) was added instead of the compound. The reaction was quenched by placing the test tube containing the reaction mixture on ice. Absorbance was measured at a wavelength of 475 nm by using a spectrophotometer.

skin [5] = conditions: background; cited from earlier work
skin [6] = conditions: background; cited from earlier work; remark: listed apart in the source

O=C1O[C@H]([C@@H](O)CO)C(O)=C1O [Ascorbic acid (vitamin C), Ascorbic acid]
inhibition of tyrosinase (in words) (tyrosinase [1]): relatively low activity in inhibition of tyrosinase

CC(C)=CCc1c(-c2ccc(O)cc2O)oc2c(CC=C(C)C)c(O)cc(O)c2c1=O [Mulberrin, mulberrin]
inhibition of melanin synthesis (in words) [2]: very excellent effect in inhibiting melanin synthesis
inhibition at 10 µg/mL ([2]; Mus musculus, B16, 120 h, mulberrin 10 μg/ml, 5 days, 37° C., read-out: Inhibition ratio of melanin synthesis): 54.4%
inhibition at 20 µg/mL ([2]; Mus musculus, B16, 120 h, mulberrin 20 μg/ml, 5 days, 37° C., read-out: Inhibition ratio of melanin synthesis): 66.8%
inhibition at 50 µg/mL ([2]; Mus musculus, B16, 120 h, mulberrin 50 μg/ml, 5 days, 37° C., read-out: Inhibition ratio of melanin synthesis): 74.8%
inhibition at 100 µg/mL ([2]; Mus musculus, B16, 120 h, mulberrin 100 μg/ml, 5 days, 37° C., read-out: Inhibition ratio of melanin synthesis): 89.3%
inhibition of melanin synthesis (in words) ([2]; listed as mulberrin): strong whitening agent inhibiting melanin synthesis in melanocytes; also recorded: very strong inhibition effect of melanin synthesis
Content of melanin ([2]; mulberrin 10 μg/ml, 5 days, 37° C.): 1.95 pg/cell
Content of melanin ([2]; mulberrin 20 μg/ml, 5 days, 37° C.): 1.42 pg/cell
Content of melanin ([2]; mulberrin 50 μg/ml, 5 days, 37° C.): 1.07 pg/cell
Content of melanin ([2]; mulberrin 100 μg/ml, 5 days, 37° C.): 0.46 pg/cell
whitening effect compared with conventional whitening agents (in words) (skin [3]): much more intensive whitening effect than conventional whitening agents
IC50 (concentration required for 50% inhibition of tyrosinase activity) (tyrosinase [4]): 0.50 µg/mL

O=c1cc(CO)occ1O [Kojic acid, kojic acid]
inhibition of tyrosinase (in words) (tyrosinase [1]): high activity

Oc1ccc(O)cc1 [Hydroquinone]
whitening activity (in words) (skin [5]): irreversible whitening activity
carcinogenicity (in words) (skin [6]): recognized as a carcinogen
skin irritation (in words) (skin [6]): irritates the skin strongly
